From patent US10273242B2, “Compound inhibiting activities of BTK and/or JAK3 kinases” (BEIJING HANMI PHARMACEUTICAL CO., LTD., priority 2013, dated 2019) come the findings set out here.

In one assay the target is T1, BTK kinase (Homo sapiens, UniProt Q06187).
T1 construct: purchased Invitrogen PV3363
Put plainly: BTK kinase activity inhibition assay (ADP-Glo). The class given is biochemical. The settings on record: ATP 50 μM.

Another assay deals with T2, JAK3 kinase (Homo sapiens, UniProt P52333).
T2 construct: purchased SignalChem J03-11G
In words: JAK3 kinase activity inhibition assay (ADP-Glo). The format is biochemical. The settings on record: ATP 10 μM. For orientation: ADP-Glo turns the ADP formed in a reaction into a luminescent signal.

Assay [1] concerns p-BTK (pY223) in Ramos cells. In words: p-BTK inhibition assay in Ramos cells (Western blot). The class given is cell-based. The settings on record: compound 1 hour, anti-human IgM stimulation. As to the method:
Ramos cells (purchased from the Beijing Union Medical College) with starvation culture for 1 hour were treated with the compounds of the present invention for 1 hour, and then rinsed with PBS buffer (pH 7.2) to remove the compounds. Then they were resuspended in 100 μL of serum-free culture medium containing 1 μM of anti-human IgM F(ab′)2 (purchased from SBA company, No.: 2022-01) and stimulated on ice for 10 minutes. The cells were rinsed with PBS buffer (pH 7.2) to remove IgM and resuspended in 100 μL of protein lysis buffer (purchased from Sigma, No.: C2978), and then prepared and quantified the protein sample. 100 μg of the protein sample were taken and loaded on polyacrylamide gels for electrophoresis under 200V of voltage. After electrophoresis, protein blots were transferred to a PVDF membrane. […] The protein expression was detected by coloration using ECL substrate (purchased from GE, No.: RPN2109).
(A western blot detects proteins with antibodies after separation by electrophoresis.)

Another assay deals with Lewis rats. In words: Adjuvant-induced arthritis (AIA) model in rats. The class given is in vivo. The settings on record: 30 mg/kg and 100 mg/kg orally once a day for 7 days. As to the method:
100 mg of inactivated Mycobacterium tuberculosis (purchased from BD Difco, No.: 231141) accurately weighed and dissolved in 5 mL of incomplete Freund's adjuvant (IFA) (purchased from Sigma, No.: F5506), and then with 5 mL of physiological saline added, was homogeneously emulsified into 10 mg/mL of complete Freund's adjuvant (CFA). […] Rats were evaluated for the severity of arthritis using an established scoring system ranging from 0 to 4 as follows: 0=no evidence of erythema or swelling; 1=slight erythema or swelling of one of the toe joints; 2=erythema or swelling of more than one toe; 3=swelling of the ankle or wrist joint; 4=swelling of all toes including the ankle joint. All four paws of the rat were scored individually, and the highest score was 16.
The paw volumes of the rats were measured by the drainage method using a plethysmometer (Plethysmometer PV-200, Chengdu Taimeng Science and Technology Co., Ltd.) to determine the volumes below the ankle joints (in mL). The rats were measured for paw volumes every other day from day 10 after primary immunization, i.e. day 1 of the administration. […]

SMILES strings stand for the structures. pIC50: −log10 of the molar value. Bounds are passed on as bounds.

T1 sequence (Q06187 whole entry): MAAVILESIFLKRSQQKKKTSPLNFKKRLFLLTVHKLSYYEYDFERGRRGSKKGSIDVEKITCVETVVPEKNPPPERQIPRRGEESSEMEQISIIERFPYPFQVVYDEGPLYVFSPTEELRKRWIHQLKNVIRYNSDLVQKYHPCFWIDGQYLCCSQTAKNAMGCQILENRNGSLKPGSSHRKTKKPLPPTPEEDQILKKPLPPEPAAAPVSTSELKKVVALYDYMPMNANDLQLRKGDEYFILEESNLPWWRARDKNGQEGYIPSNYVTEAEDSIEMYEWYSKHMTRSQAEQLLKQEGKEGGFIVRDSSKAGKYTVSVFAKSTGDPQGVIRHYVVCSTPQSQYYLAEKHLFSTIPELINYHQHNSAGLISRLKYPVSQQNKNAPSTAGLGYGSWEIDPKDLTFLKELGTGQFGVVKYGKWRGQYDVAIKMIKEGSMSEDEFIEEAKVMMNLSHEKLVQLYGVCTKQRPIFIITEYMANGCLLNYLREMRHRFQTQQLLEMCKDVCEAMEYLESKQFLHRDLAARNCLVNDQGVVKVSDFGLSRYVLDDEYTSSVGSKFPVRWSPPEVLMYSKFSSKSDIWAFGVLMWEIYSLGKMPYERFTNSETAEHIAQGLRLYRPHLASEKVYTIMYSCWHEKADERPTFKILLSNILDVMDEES
T2 sequence (P52333 781-1124 limits assumed): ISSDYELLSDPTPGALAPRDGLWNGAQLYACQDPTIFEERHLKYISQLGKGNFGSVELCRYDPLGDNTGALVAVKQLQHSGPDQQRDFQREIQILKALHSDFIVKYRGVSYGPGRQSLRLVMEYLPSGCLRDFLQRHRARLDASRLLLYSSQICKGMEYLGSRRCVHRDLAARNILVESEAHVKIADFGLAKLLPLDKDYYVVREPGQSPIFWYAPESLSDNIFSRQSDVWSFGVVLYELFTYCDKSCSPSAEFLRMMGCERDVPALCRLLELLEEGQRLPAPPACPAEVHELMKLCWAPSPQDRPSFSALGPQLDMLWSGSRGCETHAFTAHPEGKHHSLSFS

For `C=CC(=O)N1CC[C@@H](Nc2nc(Nc3cc(C)ns3)nc3ccsc23)C1` [Example 132, (R)-1-(3-((2-((3-methyl-isothiazol-5-yl)amino)thieno[3,2-d]pyrimidin-4-yl)amino)pyrrolidin-1-yl)prop-2-en-1-one], the pIC50 was no less than 7.30 against BTK kinase and no less than 8.00 against JAK3 kinase. The “inhibition of expression of p-BTK” value in assay [1] was “significantly inhibit the expressions of p-BTK and p-PLCγ2 in Ramos cells in a dose-dependent manner”. The “therapeutic effect on arthritis (arthritis severity scores)” value in the assay with Lewis rats is recorded as “good therapeutic effect on arthritis in the AIA model at the designed doses”.

By pIC50 is commonly meant the IC50 on a negative log10 scale, so that one unit is a factor of ten. A low value points to a large IC50.
